What all share (type): functional
The test system of test [1] is Bursaphelenchus xylophilus. Kind of test: Nematicidal activity against Bursaphelenchus xylophilus at 200 ug/ml after 24 hrs.
Test [2] has as its system Bursaphelenchus xylophilus. Kind of test: Nematicidal activity against Bursaphelenchus xylophilus at 200 ug/ml after 48 hrs.
The test system of test [3] is Bursaphelenchus xylophilus. Kind of test: Nematicidal activity against Bursaphelenchus xylophilus at 100 ug/ml after 48 hrs.
Test [4] has as its system Bursaphelenchus xylophilus. Briefly: Nematicidal activity against Bursaphelenchus xylophilus at 100 ug/ml after 24 hrs.

The structures appear in SMILES notation.

Turning to `O=C1CC[C@H](O)c2cc(O)cc(O)c21`, the Activity in test [1] is recorded as 51.2%; in test [2] it was 57.3%; in test [3] it was 46.7%; in test [4], 23.7%.
In the case of `Oc1ccc2c3c1[C@@H](O)[C@H]1O[C@H]1[C@]31Oc3cccc4c3[C@](O2)(O1)[C@H](O)C[C@@H]4O`, the Activity in test [1] amounted to 54.8%; in test [2] it was 62.3%; in test [3], 35.5%; in test [4], 25.6%.
Take `O=C1CCC(O)c2cccc(O)c21` (racemic) [4,8-DIHYDROXY-1-TETRALONE]: the Activity in test [1] is recorded as 53.4%; in test [2], 58.3%; in test [3] it was 43.8%; in test [4], 34.7%.
`CO[C@@H]1CC(=O)c2cccc3c2[C@@]12Oc1ccc(O)c4c1[C@](O3)(O2)[C@@H]1O[C@@H]1[C@@H]4O` [PREUSSOMERIN C]: the Activity is recorded as 59.3% in test [1], 78.6% in test [2], 67.4% in test [3] and 50.2% in test [4].
As for `O=C1c2c(O)ccc3c2[C@@]2(Oc4cccc5c4[C@](O3)(O2)[C@H](O)C[C@@H]5O)[C@@H]2O[C@H]12`, the Activity in test [1] is given as 52.3%; in test [2], 64.2%; in test [3] it was 39.6%; in test [4], 27.8%.
On to `O=C1CC[C@]23Oc4ccc(O)c5c4[C@](Oc4cccc1c42)(O3)[C@@H]1O[C@@H]1[C@@H]5O`, for which the Activity in test [1] was 47.9%; in test [2], 60.7%; in test [3], 44.1%; in test [4] it was 33.7%.
For `O=C1C[C@@H](O)[C@]23Oc4ccc(O)c5c4[C@](Oc4cccc1c42)(O3)[C@@H]1O[C@@H]1[C@@H]5O`, in that order: 56.7%, 70.3%, 66.4% and 45.2%.
For `O=C1C=C[C@]23Oc4ccc(O)c5c4[C@](Oc4cccc1c42)(O3)[C@@H]1O[C@@H]1[C@@H]5O` [PREUSSOMERIN D], in that order: 60.4%, 83.7%, 76.5% and 53.8%.

Values taken from ChEMBL document CHEMBL1157398, “Ymf 1029A-E, preussomerin analogues from the fresh-water-derived fungus YMF 1.01029” (2008).
